# In publication PMC8232644, “Self-Supporting Hydrogels Based on Fmoc-Derivatized Cationic Hexapeptides for Potential Biomedical Applications” (Biomedicines, 2021):
# Residues, ends and D or L forms follow the SMILES beside them. *: point of attachment. Fmoc = O=C(OCC1c2ccccc2-c2ccccc21)*
# Assays:
# [1] = Water solubility of peptides; assay type: physicochemical; settings: from solid: 10 mg lyophilized peptide in 1.0 mL water, sonicated 30 min at room temperature, centrifuged 5 min 13,000 rpm; UV at 301 nm (ε 7800 M^−1 cm^−1)
# Experimental: Peptide solutions were prepared by dissolving 10 mg of each lyophilized peptide in 1.0 mL of water. These suspensions were sonicated for 30 min at room temperature; after centrifugation (5 min at 13,000 rpm), the concentration was spectroscopically determined on UV–Vis Thermo Fisher Scientific Inc. (Wilmington, DE, USA) NanoDrop 2000 c spectrophotometer equipped with a 1.0 cm quartz cuvette (Hellma). The quantification of the concentration was assessed using the molar absorptivity (ε) of 7800 M^−1 cm^−1 for Fmoc group at λ = 301 nm.
# Due to their different sequence, each peptide has a different water solubility (see Table 2). […] The capability of peptides to self-assemble was initially checked by fluorescence spectroscopy, recording the emission spectra at the maximum concentration of the peptide. Peptides containing the FF motif were excited at both 257 and 301 nm, which corresponded to the excitation wavelength of phenyl and the Fmoc group, respectively, whereas peptides lacking FF were excited only at 301 nm. All the peptide derivatives, upon excitation at 301 nm, have an emission peak at 328 nm, red-shifted of 15 nm, with respect to the peak at 313 nm, which is expected for the monomeric form (see Figure S6).
# [2] = cited from earlier work
# Text: Hydrogels are matrices able to absorb water and swell in the media without dissolving. The calculated degree of swelling (q) was 55.2%, 56.6%, and 54.3% for Fmoc-K1, Fmoc-K2, and Fmoc-K3, respectively.
# [3] = In vitro hydrogel degradation in Ringer's solution; assay type: physicochemical; settings: hydrogel with 1.5 mL Ringer’s solution at 37 °C for 20 days (method: 40 days); ΔW = (Wo − Wt)/Wo
# Experimental: In vitro hydrogel degradation assay was performed by adding a fixed amount (1.5 mL) of Ringer’s solution (12.9 mg of NaCl, 0.45 mg of KCl and 0.48 mg of CaCl2) to the preformed hydrogels and by placing them in an oven at 37 °C for 40 days. Hydrogels were weighed before the addition of the Ringer’s solution (Wo) and after its removal (Wt). The weight loss ratio (ΔW) was calculated as percentage according to Equation (2) ΔW = ((Wo − Wt))/Wo %(2)
# As potential tissue engineering matrices, PHG materials would be directly exposed to biological fluids. According to this consideration, the degradation test was performed to evaluate the matrices stability in an in vivo mimetic environment. The biological setting was mimed, incubating the hydrogels with Ringer’s solution at 37 °C for 20 days. The stability, reported as ΔW, calculated using Equation (2), was estimated as weight loss. ΔW values determined for Fmoc-K1, Fmoc-K2, and Fmoc-K3 were 43.2, 39.7, and 41.8%, respectively. In comparison to other FmocFF peptide-based hydrogels, all tested samples undergo faster and more remarkable degradation. This behavior is probably ascribable to the less rigid nature of Fmoc-K HGs. As an alternative, it can also be hypothesized that the large amount of salt in the Ringer’s solution could improve the solubility of K peptides and, in turn, accelerate the loss of 3D-organization of the matrix. It is worth it to note that an efficient in vivo degradation by biological fluids of hydrogels in their single components could allow achieving a rapid excretion of the matrix, which means a high biocompatibility.
# 3T3-L1 cells [4] = assay type: cell-based, mouse; settings: 24 h
# Experimental: (§1) Aneuploid immortal keratinocyte cell line HaCat and mouse pre-adipocyte cell line 3T3-L1 were obtained from IRCCS-SDN Biobank (10.5334/ojb.26) and grown in Dulbecco’s Modified Medium (DMEM) supplemented with 10% fetal bovine serum (FBS) and 1% GlutaMAX. Cells were incubated at 37 °C and 5% CO2 and seeded in 100 mm culture dishes.
# For the adhesion test, 3T3-L1 cells were seeded in 96-well plates at a density of 0.5 ×10^4 cells per well. Before seeding, each well was filled with the indicated hydrogels; 16 h after seeding, cells were stained with Acridine Orange/Propidium Iodide stain. Cell adhesion was reported as % of adherent viable cell (fluorescing green) on total plated cells. Viability upon adhesion was reported as % viable cells and total adherent cells. […] No color change of the media was detected following the incubation and the tested pH value (7.5–7.8) was suitable for culturing added to the wells. […] At the end of the treatment, cell viability was assessed by the MTS assay. […] After 30 min of incubation at 37 °C, the samples were analyzed using the VICTOR Nivo (Perkin Elmer, Buckinghamshire, UK) at 490 nm absorbance. Cell survival was expressed as percentage of viable cells in the presence of hydrogels, compared to control cells grown in their absence. […]
# 3T3-L1 cells [5] = assay type: cell-based, mouse; settings: for Cell adhesion (% of adherent viable cells on seeded cells): 16 h; for cell viability of adherent cells: 72 h
# Experimental: as §1
# For the adhesion test, 3T3-L1 cells were seeded in 96-well plates at a density of 0.5 ×10^4 cells per well. Before seeding, each well was filled with the indicated hydrogels; 16 h after seeding, cells were stained with Acridine Orange/Propidium Iodide stain. Cell adhesion was reported as % of adherent viable cell (fluorescing green) on total plated cells. Viability upon adhesion was reported as % viable cells and total adherent cells. Duplication rate was reported as the ratio between viable cells upon 48 h from seeding and the number of viable adherent cells upon 16 h from seeding. In order to test the toxicity of hydrogels conditioned media, we used MTS assay, (CellTiter 96® AQueous One Solution Cell Proliferation Assay, Promega, Italy). For MTS assays, HaCat and 3T3-L1 cells were seeded in 96-well plates at a density of 0.7 × 10^4 cells per well. To obtain the conditioned media, hydrogels formed in a hollow plastic chamber sealed at one end with a porous membrane, were incubated with 2 mL of completed DMEM medium for 16 h in sterile condition at RT [23]. No color change of the media was detected following the incubation and the tested pH value (7.5–7.8) was suitable for culturing added to the wells. The conditioned media were used to grow the cells for 24, 48, and 72 h. At the end of the treatment, cell viability was assessed by the MTS assay. In brief, MTS was added to the cells at a final concentration of 0.5 mg/mL. After 30 min of incubation at 37 °C, the samples were analyzed using the VICTOR Nivo (Perkin Elmer, Buckinghamshire, UK) at 490 nm absorbance. Cell survival was expressed as percentage of viable cells in the presence of hydrogels, compared to control cells grown in their absence. MTS assay was repeated twice with similar results.
# To test the ability of the three hydrogels to support in vitro growth of eukaryotic cells, we culture 3T3-L1 (mouse fibroblast) cells on Fmoc-K1, K2, and K3. As first, we measured the number of cells able to adhere to hydrogels. An efficient cell adhesion is necessary for an optimal growth of the culture, and growth-supports un-favoring cell adhesion cause cell cycle arrest and induce apoptosis. […] Compared to cells plated in the absence of hydrogels, Fmoc-K1 and Fmoc-K2 disfavored cell adhesion, allowing cell attachment to 20 ± 3%, 36 ± 8% of the seeded cells, respectively.
Molecule,solubility thermodynamic at 30 min [1],swelling degree [2],weight loss ratio ΔW (stability) [3],viability (cell survival vs control) (3T3-L1 cells [4]),cell death of the attached cells (3T3-L1 cells [5]),Cell adhesion (% of adherent viable cells on seeded cells) (3T3-L1 cells [5]),cell viability of adherent cells (3T3-L1 cells [5])
CC[C@H](C)[C@H](NC(=O)[C@H](CC(C)C)NC(=O)[C@H](Cc1ccccc1)NC(=O)[C@H](Cc1ccccc1)NC(=O)OCC1c2ccccc2-c2ccccc21)C(=O)N[C@H](C(=O)N[C@@H](C)C(=O)NCC(=O)N[C@@H](CCCCN)C(N)=O)C(C)C [FmocFF-K2] (Fmoc-FFLIVAGK-NH2),253 µg/mL,,,,,,
Fmoc-diphenylalanine [FmocFF],,around 40%,,,,,
CC[C@H](C)[C@H](NC(=O)[C@H](Cc1ccccc1)NC(=O)[C@H](Cc1ccccc1)NC(=O)OCC1c2ccccc2-c2ccccc21)C(=O)N[C@@H](CC(C)C)C(=O)N[C@H](C(=O)N[C@@H](C)C(=O)NCC(=O)N[C@@H](CCCCN)C(N)=O)C(C)C [FmocFF-K1] (Fmoc-FFILVAGK-NH2),508 µg/mL,,,,,,
CC[C@H](C)[C@H](NC(=O)OCC1c2ccccc2-c2ccccc21)C(=O)N[C@@H](CC(C)C)C(=O)N[C@H](C(=O)N[C@@H](C)C(=O)NCC(=O)N[C@@H](CCCCN)C(N)=O)C(C)C [Fmoc-K1] (Fmoc-ILVAGK-NH2),1240 µg/mL,,43.2%,above 70%,9 ± 3%,20 ± 3%,92 ± 3%
CC[C@H](C)[C@H](NC(=O)[C@H](C)NC(=O)[C@H](Cc1ccccc1)NC(=O)[C@H](Cc1ccccc1)NC(=O)OCC1c2ccccc2-c2ccccc21)C(=O)N[C@H](C(=O)N[C@@H](C)C(=O)NCC(=O)N[C@@H](CCCCN)C(N)=O)C(C)C [FmocFF-K3] (Fmoc-FFAIVAGK-NH2),345 µg/mL,,,,,,
CC[C@H](C)[C@H](NC(=O)[C@H](CC(C)C)NC(=O)OCC1c2ccccc2-c2ccccc21)C(=O)N[C@H](C(=O)N[C@@H](C)C(=O)NCC(=O)N[C@@H](CCCCN)C(N)=O)C(C)C [Fmoc-K2] (Fmoc-LIVAGK-NH2),2560 µg/mL,,39.7%,,11 ± 2%,36 ± 8%,95 ± 3%
CC[C@H](C)[C@H](NC(=O)[C@H](C)NC(=O)OCC1c2ccccc2-c2ccccc21)C(=O)N[C@H](C(=O)N[C@@H](C)C(=O)NCC(=O)N[C@@H](CCCCN)C(N)=O)C(C)C [Fmoc-K3] (Fmoc-AIVAGK-NH2),3210 µg/mL,,41.8%,,3 ± 1%,85 ± 12%,94 ± 3%
